Experiment [1] concerns MCF7/hPRLR (MCF7/PRLR) cells. The experiment is described as follows: In vitro cell viability (cell kill) assay, nuclear counts. The format is cell-based, human. The text has this:
(§1) PRLR-overexpressing cells, including HEK293, PC3, MCF7 and NCI-N87, were generated to assess the ability of anti-PRLR conjugated antibodies to reduce cell viability. For comparative purposes, PC3 and T47D cells with overexpressed ErbB2 were also generated, as well as an MCF7 cell line over-expressing both hPRLR and hErbB2. Briefly, Lipofectamine® 2000-mediated transfection methodology was utilized to generate HEK293 cells expressing human PRLR (HEK293/hPRLR) or human ErbB2 (HEK293/hErbB2). Lipofectamine LTX with Plus Reagent was used to generate PC3 cells expressing human PRLR (PC3/hPRLR) or human ErbB2 (PC3/hErbB2). Lentiviral-mediated transduction was utilized to generate MCF7 cells expressing human PRLR (MCF7/hPRLR), NCI-N87 cells expressing human PRLR (NCI-N87/hPRLR), T47D cells over-expressing human ErbB2 (T47D/hErbB2), and MCF7 cells expressing both human PRLR and human ErbB2 (MCF7/hPRLR/hErbB2). All lines were selected for at least two weeks in complete growth media plus appropriate selection reagents. Stably expressing populations were enriched for PRLR expression via FACS using the anti PRLR antibody Control I.
(§2) Next, the ability of anti-PRLR-DM1 antibody-drug conjugates (i.e., anti-PRLR antibodies conjugated to DM1 via a non-cleavable linker [SMCC]) to reduce cell viability was determined using in vitro cell based assays. Cells were seeded in PDL-coated 96 well plates at 1500 to 10000 cells per well in complete growth media and allowed to grow overnight. For cell viability curves, ADCs or free DM1 (as the methyl disulfide derivative DM1-SMe) were added to the cells at final concentrations ranging from 500 nM to 5 pM and incubated for 3 days. The 293, PC3 and T47D cells were incubated with CCK8 (Dojindo, Rockville, Md.) for the final 1-3 hours and the absorbance at 450 nm (OD450) was determined on a Flexstation3 (Molecular Devices, Sunnyvale, Calif.). MCF7 cells were treated with Hoechst 33342 nuclear stain while being fixed with 4% formaldehyde. Images were acquired on the ImageXpress micro XL (Molecular Devices, Sunnyvale, Calif.) and nuclear counts were determined via Columbus image analysis software (Perkin Elmer, Shelton, Conn.). Background OD450 values (PC3, 293, and T47D) or nuclear counts (MCF7) from digitonin (40 nM) treated cells was subtracted from all wells and viability was expressed as a percentage of the untreated controls. IC50 values were determined from a four-parameter logistic equation over a 10-point response curve (GraphPad Prism).

Another experiment has as its system MCF7 (MCF7/ATCC) cells. The description is as above. Conditions: MCF7/ATCC. In kind it is cell-based, human.
From the text: as §1, §2

The next experiment deals with T47D cells. Nature of the experiment: In vitro cell viability (cell kill) assay, CCK8. In kind it is cell-based, human. The conditions noted are these: T47D, Table 19. As to the method:
as §2

A further experiment has as its system PC3 cells. The experiment is described as follows: In vitro cell viability (cell kill) assay, CCK8. In kind it is cell-based, human. The conditions noted are these: Table 18. In outline:
(§3)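 Viability of hPRLR-expressing 293, PC3 and MCF7 cells is measured after 3 days with non-cleavable-linker DM1 ADCs (final 500 nM–5 pM). IC50 comes from a four-parameter logistic fit of background-corrected percent-of-untreated values over 10 points.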

The test system of another experiment is HEK293 (293) cells. Nature of the experiment: In vitro cell viability (cell kill) assay, CCK8. Conditions: 293; Table 19. In kind it is cell-based, human. In outline:
as §3

The subject of another experiment is PC3/hPRLR cells. The experiment is described as follows: In vitro cell viability (cell kill) assay, CCK8. The conditions noted are these: Table 18. The format is cell-based, human. In outline: as §3
Another experiment has as its system MCF7/PRLR tumors. Nature of the experiment: MCF7/PRLR breast cancer xenograft, tumor size and tumor growth inhibition. In kind it is in vivo, NCr nude mice. The conditions noted are these: NCr Nude mice, multi-dose 0.2 mg/kg. The text has this: (§4) Briefly, 20×10^6 MCF7/PRLR cells (ATCC HTB-22 transfected with full length hPRLR as previously described) were implanted subcutaneously into the left mammary fat pad of female NCr nude mice. In other studies, 10×10^6 PC3/PRLR (ATCC CRL-1435 transfected with full length hPRLR as previously described) were implanted subcutaneously into the left flank of male SCID mice. Additionally, 10×10^6 parental T47D (ATCC HTB-133) or 7.5×10^10 T47D #11 cells (ATCC HTB-133 serially passaged in vivo as described below) were subcutaneously implanted into the left flank of female CB17 SCID mice. All mice were obtained from Taconic (Hudson, N.Y.). Each bolus of cells was supplemented with a 90-day estrogen release pellet (1.7 mg/pellet; Innovative Research America, Sarasota Fla.). […] Control reagents included PBS vehicle, free methyl-disulfide DM1 (DM1-SMe) and isotype Control 1-DM1.
(§5) In multi-dose studies, mice were dosed once a week for a total of three weeks with tumor volumes and body weights being monitored twice weekly throughout the study. Test ADCs were dosed at 5 and/or 15 mg/kg in the multi-dose studies. In single-dose studies, mice received a single dose of test ADC, and tumor volumes and body weights were monitored twice weekly throughout the study. Test ADCs were dosed at 1, 2.5, 5, and 15 mg/kg in the single-dose studies. Average tumor size as well as tumor growth inhibition relative to the vehicle treated group were calculated for each group. Tumors were measured with calipers twice a week until the average size of the vehicle group reached 1000 mm^3. Tumor size was calculated using the formula (length×width^2)/2. Tumor growth inhibition was calculated according to the following formula: (1−((Tfinal−Tinitial)/(Cfinal−Cinitial)))*100, where T (treated group) and C (control group) represent the mean tumor mass on the day the vehicle group reached 1000 mm^3. […] Results are summarized in Tables 21-25 (multi-dose) and Table 26 (single dose). (NT=not tested in the particular experiment shown).

The next experiment has as its system PC3/PRLR tumors. Nature of the experiment: PC3/PRLR xenograft, tumor size and tumor growth inhibition. The format is in vivo, SCID mice. Conditions: SCID mice, multi-dose 0.2 mg/kg.
From the text: as §4, §5

The test system of the next experiment is T47D#11 tumors. The format is in vivo, CB17 SCID mice. Conditions: mouse, in vivo, 0.2 mg/kg.
From the text: as §4, §5

In another experiment the test system is T47Dv11 tumors. The experiment is described as follows: T47Dv11 breast tumor xenograft, single agent and combination with fulvestrant. The format is in vivo, C.B.-17 SCID mice. The conditions noted are these: for Average Tumor Growth Inhibition (%) / Final Tumor Volume (mean ± SD): T47DvII tumors in SCID mice, Day 70. As to the method: The T47Dv11 model was used to assess the activity of H1H6958N2-DM1 in a model with significant levels of endogenous PRLR. […] Initially, 10×10^6 parental T47D cells were implanted subcutaneously (SC) into the left flank of female C.B.-17 SCID mice (Taconic, Hudson N.Y.). Tumors were supplemented with a 90-day release 1.7 mg estrogen pellet (Innovative Research America). Where T47D tumors were observed, they were excised and cut into 3 mm fragments and subsequently implanted into the left flank of separate female C.B.-17 SCID mice. Subsequent passaging was performed until a large tumor was disaggregated into a single cell suspension. The cells (named T47Dv11) from this tumor were then cultured in vitro and expanded. […] For efficacy studies, mice were implanted with 7.5×10^6 T47Dv11 cells into the left flank of female C.B.-17 SCID mice supplemented with a 90-day release 0.72 mg/pellet estrogen pellet. For MCF7 and MCF7/PRLR tumor xenografts, 2×10^7 MCF7/PRLR cells were implanted SC into the left mammary fat pad of female NCr nude mice (7-8 weeks old) supplemented with 90-day release 0.72 mg/pellet estrogen pellets. Tumors were measured with calipers twice a week for the duration of each study. Tumor volume was calculated using the formula TV=(length×width^2)/2.
After T47Dv11 tumors reached an average volume of ˜150-200 mm^3 (14-16 days post implantation), mice were randomized into treatment groups (n=8-9 mice/group) and received a single dose or three once-weekly doses of H1H6958N2-DM1, control ADC, or vehicle control, administered systemically by intravenous tail-vein injection. […] Tumor size and body weight were measured in vivo twice per week throughout the duration of the study.
Next, the combination of H1H6958N2-DM1 with the SERD fulvestrant was tested in the T47Dv11 xenograft model. Here, the activity of either agent at partially effective doses was compared against the activity of the agents in combination. First, a dose titration study of weekly administration of fulvestrant was performed in order to establish its single agent activity (FIG. 4).
For the subcutaneous tumors, average tumor size as well as tumor growth inhibition relative to the Vehicle treated group were calculated for each group. Tumors were measured with calipers twice a week until the average size of the vehicle group reached 1200 mm^3. Tumor size was calculated using the formula (length×width^2)/2. For all studies, tumor growth inhibition was calculated according to the following formula: (1−((Tfinal−Tinitial)/(Cfinal−Cinitial)))*100, where T (treated group) and C (control group) represent the mean tumor mass on the day the vehicle group reached 1000 mm^3.

Experiment [2] has as its system PRLR expression in T47DvII cells. Nature of the experiment: PRLR expression after continuous culture with fulvestrant (flow cytometry or western blotting). In kind it is cell-based, human. Conditions: continuous culture with 10 or 100 nM, data not shown. For orientation: A flow cytometer gives signals particle by particle.
A further experiment relates to TM00107 PDX tumors. The experiment is described as follows: TM00107 patient derived xenograft (PDX) breast cancer model, tumor volume. In kind it is in vivo, NOD SCID gamma (NSG) mice. Conditions: intravenous every 4 days, 4 doses. The method, then:
Efficacy of H1H6958N2-DM1 was also assessed in a patient derived xenograft (PDX) model of breast cancer that may better represent the response in patients. NOD SCID gamma (NSG) mice bearing tumor fragments of the TM00107 PDX breast cancer tumor were sourced from The Jackson Laboratories. The TM00107 PDX model was derived from an ER+/−/PR−/HER2− metastatic breast adenocarcinoma. PRLR expression was confirmed by microarray analysis and immunohistochemistry on tumor sample slides provided by The Jackson Laboratory (data not shown). When tumors were an average volume of ˜400-600 mm^3 (21 days post implantation), mice were randomized into treatment groups (n=7 mice/group) and were administered H1H6958N2-DM1, control ADC, or vehicle control by intravenous injection once weekly for a total of 4 weeks. A separate treatment group was administered paclitaxel by intravenous injection every 4 days for a total of 4 doses.
On the technique in general: A xenograft is tissue or cells of one species grown in another, often human tumour cells in immunodeficient mice.

Setting [3] is: MCF7/PRLR tumors TRIAL #1, Day 52.
[4] abbreviates: MCF7/PRLR tumors TRIAL #2, Day 63.
Where [5] appears, read: PC3/PRLR tumors TRIAL #1, Day 63.
Where [6] appears, read: PC3/PRLR tumors TRIAL #2, Day 55.

“Also recorded” adds a separate entry of the source.

For `COc1cc2cc(c1Cl)N(C)C(=O)C[C@H](OC(=O)[C@H](C)N(C)C(=O)CCSSC)[C@]1(C)O[C@H]1[C@H](C)[C@@H]1C[C@@](O)(NC(=O)O1)[C@H](OC)/C=C/C=C(\C)C2` [DM1-SMe, reference compound], the “% Kill” value is on record as 86% in experiment [1] (Table 18); 80% in [1] (Table 20); 80% in the experiment on MCF7 (MCF7/ATCC) cells (Table 18); 80% in the experiment on MCF7 (MCF7/ATCC) cells (Table 20); 100% with T47D cells; 90% in the experiment with PC3 cells. The entries for the “% Kill” value with HEK293 (293) cells and with PC3/hPRLR cells were 95% and 70%, respectively. Also, the IC50 in experiment [1] (Table 18) is 1.9 nM; in [1] (Table 20), 0.8 nM; in the experiment on MCF7 (MCF7/ATCC) cells (Table 18), 3 nM; in the experiment with MCF7 (MCF7/ATCC) cells (Table 20), 1.3 nM; in the experiment with T47D cells (read-out: IC50) it was 1.5 nM; in the experiment with PC3 cells, 0.5 nM. Further, the IC50 turned out to be 1.2 nM with HEK293 (293) cells and 1 nM in the experiment with PC3/hPRLR cells. For the same molecule, the “Average Tumor Growth Inhibition (%)” value in the experiment with MCF7/PRLR tumors (setting [3]) was 57%; in the experiment on MCF7/PRLR tumors (setting [4]) it was −33%; with PC3/PRLR tumors (setting [5]) it was −5%; in the experiment with PC3/PRLR tumors (setting [6]), 7%; in the experiment on T47D#11 tumors, −19%. The “Final Tumor size mm^3 (mean ± SEM)” value in the experiment on MCF7/PRLR tumors (setting [3]) worked out at 625 ± 141 mm^3; in the experiment on MCF7/PRLR tumors (setting [4]) it was 1080 ± 451 mm^3; in the experiment with PC3/PRLR tumors (setting [5]), 1361 ± 120 mm^3; with PC3/PRLR tumors (setting [6]), 1147 ± 59 mm^3; in the experiment with T47D#11 tumors, 1433 ± 23 mm^3.
As for `C[C@]12CC[C@@H]3c4ccc(O)cc4C[C@@H](CCCCCCCCC[S+]([O-])CCCC(F)(F)C(F)(F)F)[C@H]3[C@@H]1CC[C@@H]2O` (stereo partly drawn) [fulvestrant, reference compound], in the experiment on T47Dv11 tumors (150 mg/kg), the “Average Tumor Growth Inhibition (%)” value stood at 52% and the “Final Tumor Volume (mean ± SD)” value was found to be 660 ± 205 mm^3. In the experiment on T47Dv11 tumors (250 mg/kg), the “Average Tumor Growth Inhibition (%)” value stood at 74% and the “Final Tumor Volume (mean ± SD)” value is reported as 433 ± 189 mm^3. The “anti-tumor activity” value in the experiment on T47Dv11 tumors (combination study, individual treatment 150 or 250 mg/kg subcutaneously once weekly) was “Significant anti-tumor activity”. The “PRLR expression” value in [2] is “did not decrease PRLR expression; also recorded: did not significantly reduce PRLR expression”.
Take `CC(=O)O[C@H]1C(=O)[C@@]2(C)[C@H]([C@H](OC(=O)c3ccccc3)[C@]3(O)C[C@H](OC(=O)[C@H](O)[C@@H](NC(=O)c4ccccc4)c4ccccc4)C(C)=C1C3(C)C)[C@]1(OC(C)=O)CO[C@@H]1C[C@@H]2O` [paclitaxel, reference compound]: in the experiment on TM00107 PDX tumors, the “tumor growth” value was “did not have an effect on tumor growth”.

The IC50 is the concentration that inhibits the measured activity by half.

The record behind these values is patent US10925971B2, “Methods of treating PRLR positive breast cancer” (Regeneron Pharmaceuticals, Inc., priority 2016, dated 2021).
